Data from patent US6610289B2, “Mutated herpes simplex virus type 1 thymidine kinases and uses thereof” (The Board of Trustees of the University of Arkansas, priority 1998, dated 2003).

Experiments:
[1] = tested on: HCT-116 cells; experiment: Metabolic labeling with [^3H]GCV, [^3H]thymidine, [^3H]dC, HCT-116 cell clones; assay type: cell-based, human; conditions: for Phosphorylated metabolite GCVDP / Phosphorylated metabolite GCVMP / Phosphorylated metabolite GCVTP: 116; for Phosphorylated metabolite TMP / Phosphorylated metabolite TTP: 116, [^3H]thymidine labeled
Protocol: For metabolic labeling, cells (1-2×10^6) were labeled in triplicate with 2 μCi [^3H]GCV ([…]) for 18 hours, then nucleotides were extracted from pelleted cells in 0.2 ml 70% methanol at 4° C. for 15 minutes as previously described (21, 24). An aliquot of each methanol soluble supernatant was analyzed for radioactivity by scintillation counting. The methanol insoluble pellets, representative of a crude DNA fraction, were resuspended in 0.15 ml water and also counted for radioactivity. For deoxpyrimidines, cells were grown to confluency in 60 cm^2 plates, and either 2 μCi [^3H]thymidine (2 μM final) or 2 μCi [^3H]dC (10 μM final) were added for 1 or 2 hours respectively prior to extraction in 70% methanol. Methanol-soluble extracts were concentrated by evaporation under nitrogen, and separated on PEI-cellulose thin layer chromatography plates developed in 0.8 M LiCl for GCV or 0.35 M LiCl for thymidine/dC as previously described (21).
NIH3T3 fibroblasts and the human tumor cell line HCT-116 were transfected with wild-type HSV-1TK or with one of three site specific mutants of amino acid Gln-125. From a panel of multiple HSV-1TK expressing clones, a subset of clones from each cell line expressing wild-type HSV-1 TK, the Asn-125 HSV-1 TK mutant (Asn-125TK) and the Glu-125 HSV-1 TK mutant (Glu-125TK) were selected for comparatively equivalent levels of HSV-1 TK protein expression based on Western blot determinations. In this study, these two sets of HSV-1 TK-expressing NIH 3T3 and HCT-116 cell lines were evaluated for intracellular metabolism of [^3H]GCV, [^3H]thymidine, or [^3H]dC. Cells were labeled with [^3H]GCV for 18 hours, then nucleotides were extracted in ice-cold 70% methanol as previously described (21, 24). The data in Table 3 summarize the amount of total nucleotide metabolites isolated in the methanol-soluble extracts (pmol/10^6 cells) as well as the total amount of methanol-insoluble metabolites representative of incorporation into DNA.
The methanol-soluble metabolites were further separated into their constituent phosphorylated GCV metabolites by thin layer chromatography (21).
Cells were grown to confluency and labeled with either [^3H]thymidine or [^3H]dC for 1 or 2 hours respectively prior to methanol extraction.

[2] = tested on: HCT-116 cells; experiment: Cell cycle analysis of GCV treated cells (propidium iodide flow cytometry); assay type: cell-based, human; conditions: +GCV 25 μM, 24 hours, HCT-116 expressing the TK
Protocol: Parental HCT-116 cells and each HSV-1 TK expressing cell line were grown to 60% confluency in 25 cm^2 flasks and treated for 24 hours minus (−GCV, panels A, C, E and G) or plus (+GCV, panels B, D, F and H) 25 μM GCV. Cells were fixed in 70% ethanol overnight, and later incubated with RNAase (0.1%) and propidium iodide (1 mg/ml) for […] on ice. Flow cytometry measuring propidium iodide fluorescence was done with a Becton-Dickinson FACScalibur instrument using MODFIT computer software. FIGS. 6A and 6B: HCT-116 cells; FIGS. 6C and 6D: wild-type HSV-1 TK cells; FIGS. 6E and 6F: Asn-125TK cells, FIGS. 6G and 6H: Glu-125TK cells.
Parental HCT-116 cells and each HSV-1 TK expressing cell line were grown to 60% confluency in 25 cm^2 flasks and treated for 24 hours plus or minus 25 μM GCV. Following drug incubation, cells were removed by trypsin and total cell numbers determined. Following two phosphate buffered saline rinsing and centrifugation cycles, the cell pellets were resuspended in 1 ml of 70% ethanol and stored at 4° C. until further analysis. Just prior to cell cycle analysis, the ethanol was removed and cell pellets were resuspended in phosphate-buffered saline plus RNAase (0.1%) and propidium iodide (1 mg/ml) for 30 minutes on ice. Flow cytometry measuring propidium iodide fluorescence was done with a Becton-Dickinson FACScalibur instrument. Cell cycle distribution of the cells were determined using MODFIT computer software
GCV has also been previously reported to induce S and G2-M phase cell cycle arrest in HSV-1 TK expressing glioma and melanoma cell lines (36-38). Therefore, the effect of 24 hr GCV treatment on the cell cycling of parental and the three HSV-1 TK-expressing cell lines was examined by flow cytometry of propidium iodide stained cells. As shown in FIGS. 6A and 6B and Table 5, GCV treatment of HCT-116 parental, non-HSV-1 TK-expressing cells had little effect on the percentage of cells in each phase of the cell cycle as compared with untreated cells. In the wild-type and Asn-125TK-expressing cell lines, GCV treatment (FIGS. 6D and 6F) led to an increase in the proportion of cells in the S-phase, and undetectable percentages in G2-M phase when compared to untreated cultures (FIGS. 6C and 6E). For the Glu-125TK-expressing cells, over 50% of the GCV treated cells were in S-phase and less than 3% were in G2-M (FIG. 6H).

| Substance | Phosphorylated metabolite GCVDP [1] [pmol/10^6 cells] | Phosphorylated metabolite GCVMP [1] [pmol/10^6 cells] | Phosphorylated metabolite GCVTP [1] [pmol/10^6 cells] | Phosphorylated metabolite TMP [1] [pmol/10^6 cells] | Phosphorylated metabolite TTP [1] [pmol/10^6 cells] | Cell cycle phase G0/G1 [2] [%] | Cell cycle phase G2/M [2] | Cell cycle phase S [2] [%] | Cell cycle phase G2/M ([2]; listed as WTGln-125TK) [%] | Decrease in GCVTP levels ([1]; HCT-116 cells, compared to wild-type and Asn-125TK cells) [fold] |
| --- | --- | --- | --- | --- | --- | --- | --- | --- | --- | --- |
| Gln-125 (WT): wild-type herpes simplex virus type 1 thymidine kinase with glutamine at position 125, parent enzyme [reference compound] | 101 | 96 | 415 | 1.2 | 9.5 | 60.1 | undetectable | 39.9 | 0 | – |
| Asn-125 | 104 | 95 | 533 | 0.2 | 0.9 | 70.0 | – | 30.0 | – | – |
| Glu-125 | 2.5 | 3.0 | 18 | 0.2 | 0.4 | 39.0 | – | – | – | ≥ 23 |
